Experiment [1] deals with PSMA. Set-up: method as in PMID 24983957. The note with it: cited from earlier work.
Experiment [2] concerns the target T1, PSMA (Homo sapiens, UniProt Q04609).
T1 construct: host or cells: LNCaP cell membranes
The experiment is described as follows: Competitive binding on LNCaP cell membranes with [131I]I-MIP1095 as competitive radioligand. Conditions: [131I]I-MIP1095 radioligand, 2 h at 37 °C. Here is the method:
Cells from prostate cancer carcinomas: LNCaP and PC3, were isolated like previously described. The cells were harvested using 1 mL/flask of Trypsin-EDTA solution and centrifuged (1500 rpm for 15 min (LNCaP) and 1300 rpm for 6 min (PC3)). Received cell sediment was resuspended in 9.7 mM NaHCO3 containing 0.3 mM NaH2PO4 and incubated for 30 min at 4 °C. The solution was dispensed on 1.5 mL Eppendorf and centrifuged (13,500 rpm for 30 min). The supernatant was removed, the pellet was resuspended in 50 mM Tris-HCl Buffer (pH 7.4) and homogenized using a syringe with a thin needle. The solution was centrifuged (13,500 rpm for 30 min), and the final pellet was suspended in 50 mM Tris-HCl buffer (pH 7.4) and transferred to −70 °C.
The LNCaP cell membranes were distributed (in four replicates) in the constant amount on special MultiScreen™ 96 well assay plates. 100 µL of un-supplemented RPMI 1640 medium and 50 µL of increasing concentration of the unlabeled PSMA inhibitors was added to each well. As a control, 50 µL of PBS in 100 µL of media was used. After 15 min incubation at 37 °C, 50 µL of [^131I]I-MIP-1095 was added. Plates were incubated for 2 h at 37 °C. After an appropriate time, the supernatant solution was filtered under vacuum, and the membranes were washed twice with PBS solution. Filters and membranes were extruded to the tubes using MultiScreen Multiple Punch. The radioactivity of the filters was measured using a Wallac Wizard 1470 γ counter. The IC50 was evaluated and determined using GraphPad Prism 9.4 statistic program. As a control, PSMA-11 was used.

For experiment [3], the system named is PSMA. Also noted: method as in PMID 28450562. Conditions: affinity for PSMA ref 53; cited from earlier work.

Like-named read-outs stand apart in the source and are kept apart here.

T1 sequence (Q04609 whole entry): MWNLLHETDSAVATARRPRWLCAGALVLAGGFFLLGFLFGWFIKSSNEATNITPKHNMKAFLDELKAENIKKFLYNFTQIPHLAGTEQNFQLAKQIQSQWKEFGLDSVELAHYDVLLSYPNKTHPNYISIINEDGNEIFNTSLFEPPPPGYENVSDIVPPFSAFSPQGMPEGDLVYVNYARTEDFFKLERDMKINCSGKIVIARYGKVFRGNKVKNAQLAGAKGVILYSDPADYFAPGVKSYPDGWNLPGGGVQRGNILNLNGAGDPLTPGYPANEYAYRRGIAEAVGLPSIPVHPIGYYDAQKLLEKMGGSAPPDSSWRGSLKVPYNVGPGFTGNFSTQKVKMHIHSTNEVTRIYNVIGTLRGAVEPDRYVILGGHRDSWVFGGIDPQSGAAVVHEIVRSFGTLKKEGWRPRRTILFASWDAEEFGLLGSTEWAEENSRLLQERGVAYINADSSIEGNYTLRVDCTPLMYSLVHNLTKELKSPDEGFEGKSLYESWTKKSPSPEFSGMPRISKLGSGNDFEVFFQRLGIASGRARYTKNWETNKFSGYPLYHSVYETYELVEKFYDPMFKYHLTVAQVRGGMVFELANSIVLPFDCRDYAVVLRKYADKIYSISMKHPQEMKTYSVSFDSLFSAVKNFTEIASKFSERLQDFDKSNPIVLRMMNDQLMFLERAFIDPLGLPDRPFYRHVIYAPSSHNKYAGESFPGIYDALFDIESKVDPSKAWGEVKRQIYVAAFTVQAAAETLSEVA

With `O.O=C([O-])CN(CCN(CC(=O)[O-])Cc1cc(CCC(=O)O)ccc1O)Cc1cc(CCC(=O)NCCCCCC(=O)NCCCC[C@H](NC(=O)N[C@@H](CCC(=O)O)C(=O)O)C(=O)O)ccc1[O-].[Ga+3]` [[^68Ga]Ga-PSMA-11, Glu-NH-CO-Lys-(ahx)-HBED-CC-[^68Ga]Ga], the Kd in experiment [1] (literature value ref 15) was 0.0114 ± 0.0071 µM.
In turn, `NNc1ccc(C(=O)NCCCCCC(=O)N[C@@H](Cc2c[nH]c3ccccc23)C(=O)NCCCC[C@H](NC(=O)N[C@@H](CCC(=O)O)C(=O)O)C(=O)O)cn1` [PSMA-T3, Glu-CO-Lys-LTrp-6Ahx-HYNIC] returned an IC50 in experiment [2] of 0.0746 µM.
With `NNc1ccc(C(=O)NC[C@H]2CC[C@H](C(=O)N[C@@H](Cc3c[nH]c4ccccc34)C(=O)NCCCC[C@H](NC(=O)N[C@@H](CCC(=O)O)C(=O)O)C(=O)O)CC2)cn1` [PSMA-T4, (S)-2-{3-[(S)-5-[(S)-3-(1H-Indol-3-yl)-2-({(1r,4r)-4-[(6-hydrazino-nicotinoylamino)methyl]cyclohexyl}carbonylamino)propionylamino]-1-carboxypentyl]ureido}glutaric acid], in experiment [2], the concentration for half-maximal inhibition (IC50) amounted to 0.0795 µM.
On to `O=C(O)CCc1ccc(O)c(CN(CCN(CC(=O)O)Cc2cc(CCC(=O)NCCCCCC(=O)NCCCC[C@H](NC(=O)N[C@@H](CCC(=O)O)C(=O)O)C(=O)O)ccc2O)CC(=O)O)c1` [PSMA-11], for which the Kd in experiment [1] is 0.0114 µM. The IC50 in experiment [2] amounted to 0.715 µM.
`O=C(O)CC[C@H](NC(=O)N[C@@H](CCCCNC(=O)Nc1ccc([131I])cc1)C(=O)O)C(=O)O` [[^131I]I-MIP-1095, (2S)-2-({[(1S)-1-carboxy-5-({[4-[¹³¹I]iodophenyl]carbamoyl}amino)pentyl]carbamoyl}amino)pentanedioic acid]: in experiment [3], the IC50 is 0.0003 µM.

One may read the Kd as the equilibrium constant for the complex coming apart. One may read the IC50 as the concentration that inhibits the measured activity by half.

The record behind these values is article PMC9658561, “[^99mTc]Tc-PSMA-T4—Novel SPECT Tracer for Metastatic PCa: From Bench to Clinic” (Molecules, 2022).
